Patent US10988485B2 (Amgen Inc., priority 2018, dated 2021)
Read-outs that look alike come from different tables or passages of the source.

Assays:
[1] = molecular target: GDP-bound KRAS protein (aa 1-169), containing both G12C and C118A amino acid substitutions (Homo sapiens, UniProt P01116, C118A/G12C); experiment: Coupled Nucleotide Exchange Assay (SOS-mediated nucleotide exchange, AlphaScreen); type: biochemical; conditions: compound pre-incubation either 5 min or 2 hours (not stated per compound); SOS and GTP added, cRAF AlphaScreen read-out
GDP-bound KRAS protein (aa 1-169), containing both G12C and C118A amino acid substitutions, sequence (P01116 1-169 isoform P01116-2 G12C/C118A): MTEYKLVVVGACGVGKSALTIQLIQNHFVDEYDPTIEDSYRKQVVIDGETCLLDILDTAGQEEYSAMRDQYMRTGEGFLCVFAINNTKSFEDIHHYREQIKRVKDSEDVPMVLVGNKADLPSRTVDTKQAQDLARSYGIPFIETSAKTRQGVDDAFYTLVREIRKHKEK
Experimental: (§1) For compounds in Table 6, the following assay conditions were employed:
Coupled Nucleotide Exchange Assay: Purified GDP-bound KRAS protein (aa 1-169), containing both G12C and C118A amino acid substitutions and an N-terminal His-tag, was pre-incubated in assay buffer (25 mM HEPES pH 7.4, 10 mM MgCl2, and 0.01% Triton X-100) with a compound dose-response titration for either 5 min or 2 hours (see Table 15). Following compound pre-incubation, purified SOS protein (aa 564-1049) and GTP (Roche 10106399001) were added to the assay wells and incubated for an additional 30 min (for 5 min compound pre-incubation) or 1 hour (for 2 hour compound pre-incubation). To determine the extent of inhibition of SOS-mediated nucleotide exchange, purified GST-tagged cRAF (aa 1-149), nickel chelate AlphaLISA acceptor beads (PerkinElmer AL108R), and AlphaScreen glutathione donor beads (PerkinElmer 6765302) were added to the assay wells and incubated for 10 minutes. The assay plates were then read on a PerkinElmer EnVision Multilabel Reader, using AlphaScreen® technology, and data were analyzed using a 4-parameter logistic model to calculate IC50 values.

[2] = tested on: Phosphorylation of ERK1/2 in MIA PaCa-2 cells; experiment: Phospho-ERK1/2 MSD Assay; type: cell-based; conditions: compound 2 or 4 hours, then 10 ng/mL EGF for 10 min, read-out: p-ERK IC50 (MIA-PaCa-2) (converted)
Experimental: as §1
Phospho-ERK1/2 MSD Assay: MIA PaCa-2 (ATCC® CRL-1420™) cells were cultured in RPMI 1640 Medium (ThermoFisher Scientific 11875093) containing 10% fetal bovine serum (ThermoFisher Scientific 16000044) and 1× penicillin-streptomycin-glutamine (ThermoFisher Scientific 10378016). Sixteen hours prior to compound treatment, MIA PaCa-2 cells were seeded in 96-well cell culture plates at a density of 25,000 cells/well and incubated at 37° C., 5% CO2. A compound dose-response titration was diluted in growth media, added to appropriate wells of a cell culture plate, and then incubated at 37° C., 5% CO2 for 2 or 4 hours. Following compound treatment, cells were stimulated with 10 ng/mL EGF (Roche 11376454001) for 10 min, washed with ice-cold Dulbecco's phosphate-buffered saline, no Ca^2+ or Mg^2+ (ThermoFisher Scientific 14190144), and then lysed in RIPA buffer (50 mM Tris-HCl pH 7.5, 1% Igepal, 0.5% sodium deoxycholate, 150 mM NaCl, and 0.5% sodium dodecyl sulfate) containing protease inhibitors (Roche 4693132001) and phosphatase inhibitors (Roche 4906837001). Phosphorylation of ERK1/2 in compound-treated lysates was assayed using Phospho-ERK1/2 Whole Cell Lysate kits (Meso Scale Discovery K151DWD) according to the manufacturer's protocol. Assay plates were read on a Meso Scale Discovery Sector imager 6000, and data were analyzed using a 4-parameter logistic model to calculate IC50 values.

[3] = Homo sapiens, MIA PaCa-2, MIA PaCa-2 cells

| SMILES | IC50 [1] [nM] | IC50 [2, 3] [nM] | IC50 ([2]; MIA PaCa-2 cells) [nM] |
| --- | --- | --- | --- |
| C=CC(=O)N1C[C@H](C)N(C2=NS(=O)(=O)N(c3scnc3C(C)C)c3nc(-c4c(O)cccc4F)c(Cl)cc32)C[C@H]1C [Example 1-5, 1-((2R,5S)-4-(6-chloro-7-(2-fluoro-6-hydroxyphenyl)-2,2-dioxido-1-(4-(2-propanyl)-1,3-thiazol-5-yl)-1H-pyrido[2,3-c][1,2,6]thiadiazin-4-yl)-2,5-dimethyl-1-piperazinyl)-2-propen-1-one] | 100 | 110 | – |
| C=CC(=O)N1C[C@H](C)N(C2=NS(=O)(=O)N(c3ccccc3C(C)(C)C)c3nc(-c4ccccc4F)c(Cl)cc32)C[C@H]1C [Example 1-1] | – | – | 340 |
| C=CC(=O)N1C[C@H](C)N(C2=NS(=O)(=O)N(c3ccccc3C(C)C)c3nc(-c4c(O)cccc4F)c(Cl)cc32)C[C@H]1C [Example 1-4, 1-((2R,5S)-4-(6-chloro-7-(2-fluoro-6-hydroxyphenyl)-2,2-dioxido-1-(2-(2-propanyl)phenyl)-1H-pyrido[2,3-c][1,2,6]thiadiazin-4-yl)-2,5-dimethyl-1-piperazinyl)-2-propen-1-one] | 170 | 160 | – |
| C=CC(=O)N1C[C@H](C)N(C2=NS(=O)(=O)N(c3c(CC)cccc3CC)c3nc(-c4ccccc4F)c(Cl)cc32)C[C@H]1C [Example 1-6, 1-((2R,5S)-4-(6-chloro-1-(2,6-diethylphenyl)-7-(2-fluorophenyl)-2,2-dioxido-1H-pyrido[2,3-c][1,2,6]thiadiazin-4-yl)-2,5-dimethyl-1-piperazinyl)-2-propen-1-one] | 2690 | – | – |

More lines, now with the values ahead:

| IC50 [1] [nM] | IC50 [2, 3] [nM] | IC50 ([2]; MIA PaCa-2 cells) [nM] | SMILES |
| --- | --- | --- | --- |
| 180 | 240 | – | C=CC(=O)N1C[C@H](C)N(C2=NS(=O)(=O)N(c3ccccc3C(C)C)c3nc(-c4ccccc4F)c(Cl)cc32)C[C@H]1C [Example 2-3, 1-((2R,5S)-4-(6-chloro-7-(2-fluorophenyl)-1-(2-isopropylphenyl)-2,2-dioxido-1H-pyrido[2,3-c][1,2,6]thiadiazin-4-yl)-2,5-dimethylpiperazin-1-yl)prop-2-en-1-one] |
| 2980 | – | 1520 | C=CC(=O)N1CCN(C2=NS(=O)(=O)N(c3c(C)ccnc3C(C)C)c3nc(-c4ccccc4F)c(Cl)cc32)[C@@H](C)C1 (single isomer, unassigned) [Example 2-2-2] |
| 150 | 90 | – | C=CC(=O)N1CCN(C2=NS(=O)(=O)N(c3ccc(CN(C)C)cc3C(C)C)c3nc(-c4ccccc4F)c(Cl)cc32)[C@@H](C)C1 [Example 3-1, 1-((3S)-4-(6-Chloro-1-(4-((dimethylamino)methyl)-2-(2-propanyl)phenyl)-7-(2-fluorophenyl)-2,2-dioxido-1H-pyrido[2,3-c][1,2,6]thiadiazin-4-yl)-3-methyl-1-piperazinyl)-2-propen-1-one] |
| 200 | 200 | – | C=CC(=O)N1C[C@H](C)N(C2=NS(=O)(=O)N(c3c(C)cnn3C(C)C)c3nc(-c4ccccc4F)c(Cl)cc32)C[C@H]1C [Example 1-11, 1-((2R,5S)-4-(6-chloro-7-(2-fluorophenyl)-1-(4-methyl-1-(2-propanyl)-1H-pyrazol-5-yl)-2,2-dioxido-1H-pyrido[2,3-c][1,2,6]thiadiazin-4-yl)-2,5-dimethyl-1-piperazinyl)-2-propen-1-one] |
| 190 | 180 | – | C=CC(=O)N1CCN(C2=NS(=O)(=O)N(c3ccccc3C(C)C)c3nc(-c4ccccc4S(C)(=O)=O)c(Cl)cc32)[C@@H](C)C1 [Example 1-9, 1-((3S)-4-(6-chloro-7-(2-(methylsulfonyl)phenyl)-2,2-dioxido-1-(2-(2-propanyl)phenyl)-1H-pyrido[2,3-c][1,2,6]thiadiazin-4-yl)-3-methyl-1-piperazinyl)-2-propen-1-one] |
| 150 | – | 330 | C=CC(=O)N1C[C@H](C)N(C2=NS(=O)(=O)N(c3c(C)cnn3C(C)C)c3nc(-c4ccccc4F)c(Cl)cc32)C[C@H]1C (single isomer, unassigned) [Example 1-11-2] |
